{"source": "patent EP0249194A2", "about": "“Topical prostaglandin formulations” (AMERICAN CYANAMID COMPANY, priority 1986, dated 1987)", "key": {"male pattern baldness": {"tested_on": "male pattern baldness", "assay": "Clinical study of hair growth after once-daily topical application to the scalp, hair counts", "type": "in vivo, healthy, male volunteers", "conditions": "topical application of small amounts; mean hair counts over a six-month period (Figs. 1-5) and three-month chart", "procedure": "Clinical studies using healthy, male volunteers (age 18-65) with vertex baldness and some recession of front hairline were performed using viprostol in Formulation A, above-described. The volunteers were not hypertensive. […] The hairs on such location were counted at the beginning of the study, and recounts were done periodically during the course of the study. All hair, including unpigmented vellus and pigmented intermediate and terminal hair was, counted, except as indicated hereinbelow. The amount of viprostol applied was approximately 120 mcg, which amount was applied once daily to the bald and balding areas of the scalp. The viprostol was contained in the above-described Formulation A. Approximately 0.3 ml of such formulation was topically to the scalp with an index finger and rubbing action. The scalp was clean (recently shampooed) and dry at application. The chart below summarizes the results after three months of study.\nAdditionally, as the study proceeded beyond three months, the results wre charted as mean hair counts over time."}, "[1]": {"assay": "Stability of viprostol compositions on storage in glass (ampules)", "type": "physicochemical"}}, "note": "Where two headings read alike, the source gives them in different places."}
{"molecule": "C=CC(O)(CC=CC1C(O)CC(=O)C1CC=CCCCC(=O)OC)CCCC", "note": "(racemic) [viprostol, Methyl (±)-[11α,5Z(5E), 13E, 16R and 16S]-16 ethenyl-11,16-dihydroxy-9-oxoprosta-5,13-dien-1-oate]", "values": [{"measurement": "hair growth", "setting": "male pattern baldness", "result": "caused hair growth"}, {"measurement": "Stability of Viprostol Compositions (% of Initial Potency)", "setting": "[1]; Initial", "result": 100, "unit": "%"}, {"measurement": "remaining at 1440 h", "setting": "[1]; neat bulk liquid, 23°C 2 months, read-out: Stability of Viprostol Compositions (% of Initial Potency)", "result": 99, "unit": "%"}, {"measurement": "remaining at 4320 h", "setting": "[1]; neat bulk liquid, 23°C 6 months, read-out: Stability of Viprostol Compositions (% of Initial Potency)", "result": 87, "unit": "%"}, {"measurement": "remaining at 8760 h", "setting": "[1]; neat bulk liquid, 23°C 12 months, read-out: Stability of Viprostol Compositions (% of Initial Potency)", "result": 20, "unit": "%"}, {"measurement": "remaining at 13152 h", "setting": "[1]; neat bulk liquid, 23°C 18 months, read-out: Stability of Viprostol Compositions (% of Initial Potency)", "result": 12, "unit": "%"}, {"measurement": "remaining at 1440 h", "setting": "[1]; neat bulk liquid, 42°C 2 months, read-out: Stability of Viprostol Compositions (% of Initial Potency)", "result": 83, "unit": "%"}, {"measurement": "remaining at 720 h", "setting": "[1]; neat bulk liquid, 56°C 1 month, read-out: Stability of Viprostol Compositions (% of Initial Potency)", "result": 32, "unit": "%"}, {"measurement": "remaining at 1440 h", "setting": "[1]; neat bulk liquid, 56°C 2 months, read-out: Stability of Viprostol Compositions (% of Initial Potency)", "result": 0, "unit": "%"}]}
